Data published in ChEMBL document CHEMBL1909046, “DrugMatrix in vitro pharmacology data”.

Tests used:
Interstitial collagenase = target: T1, Interstitial collagenase (Homo sapiens, UniProt P03956); assay: biochemical; type: tissue-based, Rheumatoid synovial fibroblasts;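 also: MMP-1 enzyme inhibition assay using a peptide substrate; in other assays of this panel Not Active means under 50% inhibition at 10 µM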
T1 sequence (P03956 whole entry): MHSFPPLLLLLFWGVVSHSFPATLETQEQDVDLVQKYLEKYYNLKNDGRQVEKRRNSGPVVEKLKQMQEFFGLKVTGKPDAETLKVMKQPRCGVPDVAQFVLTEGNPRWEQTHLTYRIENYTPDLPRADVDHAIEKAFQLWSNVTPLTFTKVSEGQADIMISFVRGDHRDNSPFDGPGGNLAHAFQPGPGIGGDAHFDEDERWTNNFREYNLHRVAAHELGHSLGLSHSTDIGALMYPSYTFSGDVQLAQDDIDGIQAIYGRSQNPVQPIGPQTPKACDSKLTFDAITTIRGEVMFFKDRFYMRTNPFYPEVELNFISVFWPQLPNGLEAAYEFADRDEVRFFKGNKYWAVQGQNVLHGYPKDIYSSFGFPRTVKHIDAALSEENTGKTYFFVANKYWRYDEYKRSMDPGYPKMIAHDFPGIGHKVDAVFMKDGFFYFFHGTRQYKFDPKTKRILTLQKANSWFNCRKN

Cytochrome P450 2C19 = Cytochrome P450 2C19 (Homo sapiens, UniProt P33261); details: bti-tn-5b1-4; also: in other assays of this panel Not Active means under 50% inhibition at 10 µM
Sequence of Cytochrome P450 2C19 (P33261 whole entry): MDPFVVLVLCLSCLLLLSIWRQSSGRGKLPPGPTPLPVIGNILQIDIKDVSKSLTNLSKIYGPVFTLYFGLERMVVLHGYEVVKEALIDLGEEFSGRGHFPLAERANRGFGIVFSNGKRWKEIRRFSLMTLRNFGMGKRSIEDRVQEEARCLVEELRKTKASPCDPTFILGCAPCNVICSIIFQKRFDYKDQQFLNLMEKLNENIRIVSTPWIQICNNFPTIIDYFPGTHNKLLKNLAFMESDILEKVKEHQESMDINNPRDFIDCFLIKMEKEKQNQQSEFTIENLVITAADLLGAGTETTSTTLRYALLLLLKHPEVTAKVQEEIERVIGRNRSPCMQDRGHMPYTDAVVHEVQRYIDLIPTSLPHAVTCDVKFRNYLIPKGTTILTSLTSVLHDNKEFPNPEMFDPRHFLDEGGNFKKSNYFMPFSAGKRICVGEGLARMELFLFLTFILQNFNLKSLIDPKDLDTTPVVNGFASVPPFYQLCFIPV

Substance-P receptor = Substance-P receptor (Homo sapiens, UniProt P25103); type: cell membranes, CHO, Membrane; details: cho; also: in other assays of this panel Not Active means under 50% inhibition at 10 µM
Sequence of Substance-P receptor (P25103 whole entry): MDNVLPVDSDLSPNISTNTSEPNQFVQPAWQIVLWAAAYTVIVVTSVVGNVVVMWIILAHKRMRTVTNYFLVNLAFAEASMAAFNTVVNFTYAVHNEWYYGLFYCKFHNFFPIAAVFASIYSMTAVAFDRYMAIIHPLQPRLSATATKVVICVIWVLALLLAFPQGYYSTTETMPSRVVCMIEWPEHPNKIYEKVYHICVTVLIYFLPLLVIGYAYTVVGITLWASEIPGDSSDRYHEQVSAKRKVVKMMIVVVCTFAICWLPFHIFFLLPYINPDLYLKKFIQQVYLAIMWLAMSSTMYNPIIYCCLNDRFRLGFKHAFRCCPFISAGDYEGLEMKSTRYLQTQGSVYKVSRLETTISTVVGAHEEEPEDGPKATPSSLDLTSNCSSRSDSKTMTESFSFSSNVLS

Cytochrome P450 3A4 = Cytochrome P450 3A4 (Homo sapiens, UniProt P08684); details: bti-tn-5b1-4; also: in other assays of this panel Not Active means under 50% inhibition at 10 µM
Sequence of Cytochrome P450 3A4 (P08684 whole entry): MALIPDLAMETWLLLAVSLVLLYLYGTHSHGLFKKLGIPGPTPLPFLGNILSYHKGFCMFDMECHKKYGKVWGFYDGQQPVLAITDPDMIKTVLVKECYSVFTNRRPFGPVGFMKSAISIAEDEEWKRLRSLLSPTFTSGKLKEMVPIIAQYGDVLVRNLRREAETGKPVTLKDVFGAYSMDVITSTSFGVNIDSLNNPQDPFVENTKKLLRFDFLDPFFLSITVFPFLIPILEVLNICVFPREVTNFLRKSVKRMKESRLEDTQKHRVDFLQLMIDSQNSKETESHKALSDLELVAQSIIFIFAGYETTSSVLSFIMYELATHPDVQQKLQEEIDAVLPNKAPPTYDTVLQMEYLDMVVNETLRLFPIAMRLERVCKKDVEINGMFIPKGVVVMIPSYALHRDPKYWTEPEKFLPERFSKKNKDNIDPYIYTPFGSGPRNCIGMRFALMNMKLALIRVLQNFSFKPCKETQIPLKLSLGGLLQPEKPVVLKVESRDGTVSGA

[1] = target: T2, C-C chemokine receptor type 4 (Homo sapiens, UniProt P51679); type: cell membranes, Membrane; details: chem-1; also: in other assays of this panel Not Active means under 50% inhibition at 10 µM
T2 sequence (P51679 whole entry): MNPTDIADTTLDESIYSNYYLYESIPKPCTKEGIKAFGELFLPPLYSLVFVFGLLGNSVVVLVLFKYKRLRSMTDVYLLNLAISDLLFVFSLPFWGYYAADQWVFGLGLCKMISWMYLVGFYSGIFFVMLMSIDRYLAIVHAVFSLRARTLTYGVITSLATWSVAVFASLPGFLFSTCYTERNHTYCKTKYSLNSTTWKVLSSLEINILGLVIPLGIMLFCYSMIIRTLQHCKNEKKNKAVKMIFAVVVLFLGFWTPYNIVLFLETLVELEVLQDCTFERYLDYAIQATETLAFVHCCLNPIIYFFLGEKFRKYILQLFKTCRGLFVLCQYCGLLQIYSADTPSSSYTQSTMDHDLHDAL

Substance-K receptor = target: T3, Substance-K receptor (Homo sapiens, UniProt P21452); type: cell membranes, CHO, Membrane; also: in other assays of this panel Not Active means under 50% inhibition at 10 µM
T3 sequence (P21452 whole entry): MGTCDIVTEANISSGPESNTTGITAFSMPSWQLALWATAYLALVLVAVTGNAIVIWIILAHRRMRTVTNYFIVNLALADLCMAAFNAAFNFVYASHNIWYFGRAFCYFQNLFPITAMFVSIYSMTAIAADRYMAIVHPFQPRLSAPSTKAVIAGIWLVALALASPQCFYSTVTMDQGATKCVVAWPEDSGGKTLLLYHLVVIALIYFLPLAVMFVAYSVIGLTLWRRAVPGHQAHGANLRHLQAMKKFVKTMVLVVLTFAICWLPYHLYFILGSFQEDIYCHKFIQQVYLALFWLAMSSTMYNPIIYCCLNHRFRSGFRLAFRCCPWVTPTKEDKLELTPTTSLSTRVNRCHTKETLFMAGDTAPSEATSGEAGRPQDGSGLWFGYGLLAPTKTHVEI

[2] = DRUGMATRIX: Sodium/nucleoside co-transporter radioligand binding (ligand: nitrobenzylthioinosine); type: cell membranes, Cavia porcellus, Dunkin-Hartley, Cerebral cortex, Membrane; details: Not Active = under 50% inhibition at 10 µM
Thromboxane-A synthase = target: T4, Thromboxane-A synthase (Homo sapiens, UniProt P24557); assay: biochemical; type: tissue-based, Platelet
T4 sequence (P24557 whole entry): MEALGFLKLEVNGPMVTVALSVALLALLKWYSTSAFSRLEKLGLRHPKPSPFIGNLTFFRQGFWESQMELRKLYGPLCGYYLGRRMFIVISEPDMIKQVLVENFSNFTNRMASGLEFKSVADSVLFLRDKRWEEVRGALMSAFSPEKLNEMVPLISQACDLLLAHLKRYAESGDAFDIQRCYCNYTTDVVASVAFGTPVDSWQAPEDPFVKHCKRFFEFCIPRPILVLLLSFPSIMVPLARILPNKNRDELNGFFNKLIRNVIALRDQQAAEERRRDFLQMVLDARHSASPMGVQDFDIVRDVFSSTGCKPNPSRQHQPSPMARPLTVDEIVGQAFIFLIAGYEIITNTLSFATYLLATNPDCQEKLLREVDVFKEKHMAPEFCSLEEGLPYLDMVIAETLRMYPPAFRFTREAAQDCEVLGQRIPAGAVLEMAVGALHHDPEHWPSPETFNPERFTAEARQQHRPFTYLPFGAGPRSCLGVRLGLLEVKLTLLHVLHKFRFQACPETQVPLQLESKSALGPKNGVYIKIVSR

| Compound | IC50 (Interstitial collagenase) | IC50 (Cytochrome P450 2C19) | Ki (Cytochrome P450 2C19) | IC50 (Substance-P receptor) | IC50 (Cytochrome P450 3A4) | Ki (Cytochrome P450 3A4) | IC50 [1] | IC50 (Substance-K receptor; cho) | IC50 [2] | Ki [2] | IC50 (Thromboxane-A synthase; platelet) | IC50 (Substance-K receptor; read-out: IC50) [µM] | Ki (Substance-K receptor; read-out: Ki) [µM] | IC50 (Thromboxane-A synthase; read-out: IC50) [µM] |
| --- | --- | --- | --- | --- | --- | --- | --- | --- | --- | --- | --- | --- | --- | --- |
| CCCNC(C)C(=O)Nc1ccccc1C (configuration not stated) [PRILOCAINE] | Not Active | Not Active | Not Active | Not Active | Not Active | Not Active | Not Active | Not Active | Not Active | Not Active | Not Active |  |  |  |
| NS(=O)(=O)c1cc(C2(O)NC(=O)c3ccccc32)ccc1Cl (configuration not stated) [CHLORTHALIDONE] | Not Active | Not Active | Not Active | Not Active | Not Active | Not Active | Not Active | Not Active | Not Active | Not Active | Not Active |  |  |  |
| CCN(CC)CCCC(C)Nc1c2ccc(Cl)cc2nc2ccc(OC)cc12 (configuration not stated) [QUINACRINE] | Not Active | Not Active | Not Active | Not Active | Not Active | Not Active | Not Active | Not Active | Not Active | Not Active | Not Active |  |  |  |
| CN1CCC(=C2c3ccccc3CC(=O)c3sccc32)CC1 [KETOTIFEN] | Not Active | Not Active | Not Active | Not Active | Not Active | Not Active | Not Active | Not Active | Not Active | Not Active | Not Active |  |  |  |
| Cc1c(O)cccc1C(=O)N[C@@H](CSc1ccccc1)[C@H](O)CN1C[C@H]2CCCC[C@H]2C[C@H]1C(=O)NC(C)(C)C | Not Active | Not Active | Not Active | Not Active |  |  | Not Active |  | Not Active | Not Active |  | 29.4 | 9.79 | 21.1 |
| C[C@]12C=CC(=O)C=C1CC[C@H]1[C@@H]3C[C@@H](O)[C@](O)(C(=O)CO)[C@@]3(C)C[C@H](O)[C@@]12F [TRIAMCINOLONE] | Not Active |  |  | Not Active | Not Active | Not Active | Not Active | Not Active | Not Active | Not Active | Not Active |  |  |  |
| CCN(CC)CCNC(=O)c1ccc(N)cc1 [PROCAINAMIDE] | Not Active |  |  | Not Active | Not Active | Not Active | Not Active | Not Active | Not Active | Not Active | Not Active |  |  |  |
| CC(=O)OCC(=O)[C@@]12OC(C)(C)O[C@@H]1C[C@H]1[C@@H]3C[C@H](F)C4=CC(=O)C=C[C@]4(C)[C@@]3(F)[C@@H](O)C[C@@]12C [FLUOCINONIDE] | Not Active |  |  | Not Active |  |  | Not Active | Not Active | Not Active | Not Active | Not Active |  |  |  |
| CC(C)(C(=O)O)c1ccc(C(O)CCCN2CCC(C(O)(c3ccccc3)c3ccccc3)CC2)cc1 (configuration not stated) [FEXOFENADINE] | Not Active |  |  | Not Active |  |  | Not Active | Not Active | Not Active | Not Active | Not Active |  |  |  |
| C[C@H]1COc2c(N3CCN(C)CC3)c(F)cc3c(=O)c(C(=O)O)cn1c23.C[C@H]1COc2c(N3CCN(C)CC3)c(F)cc3c(=O)c(C(=O)O)cn1c23.O [LEVOFLOXACIN] | Not Active | Not Active | Not Active | Not Active |  |  | Not Active | Not Active | Not Active | Not Active | Not Active |  |  |  |
| NNCCc1ccccc1 [PHENELZINE] | Not Active |  |  | Not Active |  |  | Not Active | Not Active | Not Active | Not Active | Not Active |  |  |  |
| O=C(c1ccccc1F)N1CCC(Cc2ccccc2)CC1 | Not Active |  |  | Not Active | Not Active | Not Active | Not Active | Not Active | Not Active | Not Active | Not Active |  |  |  |
| COc1cc(OC)c(C(=O)CCCN2CCCC2)c(OC)c1 [BUFLOMEDIL] | Not Active | Not Active | Not Active | Not Active |  |  | Not Active | Not Active | Not Active | Not Active | Not Active |  |  |  |
| CC(C)C[C@H]1C(=O)N2CCC[C@H]2[C@]2(O)O[C@](NC(=O)[C@@H]3C=C4c5cccc6[nH]cc(c56)C[C@H]4N(C)C3)(C(C)C)C(=O)N12 [ERGOCRYPTINE] | Not Active | Not Active | Not Active | Not Active |  |  | Not Active | Not Active | Not Active | Not Active | Not Active |  |  |  |
| COc1ccc2c(c1OC)C(=O)O[C@@H]2[C@H]1c2c(cc3c(c2OC)OCO3)CCN1C [NOSCAPINE] | Not Active |  |  | Not Active | Not Active | Not Active | Not Active | Not Active | Not Active | Not Active | Not Active |  |  |  |
| C[C@@H]1C/C=C/C=C/C=C/C=C/[C@H](O[C@@H]2O[C@H](C)[C@@H](O)[C@H](N)[C@@H]2O)C[C@@H]2O[C@](O)(C[C@@H](O)C[C@H]3O[C@@H]3/C=C/C(=O)O1)C[C@H](O)[C@H]2C(=O)O [NATAMYCIN] | Not Active |  |  | Not Active |  |  | Not Active | Not Active | Not Active | Not Active | Not Active |  |  |  |
| NC12CC3CC(CC(C3)C1)C2 [AMANTADINE] | Not Active |  |  | Not Active |  |  | Not Active | Not Active | Not Active | Not Active | Not Active |  |  |  |
| CC(C)c1c(C(=O)Nc2ccccc2)c(-c2ccccc2)c(-c2ccc(F)cc2)n1CC[C@@H](O)C[C@@H](O)CC(=O)O [ATORVASTATIN] | Not Active |  |  | Not Active |  |  | Not Active | Not Active | Not Active | Not Active | Not Active |  |  |  |
| N=C(N)c1ccc(OCCCCCOc2ccc(C(=N)N)cc2)cc1 [PENTAMIDINE] | Not Active | Not Active | Not Active | Not Active |  |  | Not Active | Not Active | Not Active | Not Active | Not Active |  |  |  |
| CCOc1nc2cccc(C(=O)O)c2n1Cc1ccc(-c2ccccc2-c2nnn[nH]2)cc1 | Not Active |  |  | Not Active |  |  | Not Active | Not Active | Not Active | Not Active |  |  |  | 3.06 |
| N[C@@H](Cn1ccc(=O)c(O)c1)C(=O)O [L-MIMOSINE] | Not Active |  |  | Not Active |  |  | Not Active | Not Active | Not Active | Not Active | Not Active |  |  |  |
